Laboratory results reported in ChEMBL document CHEMBL3875210, “Synthesis, functionalization and biological activity of arylated derivatives of (+)-estrone” (Bioorg Med Chem, 2017).

How the values were obtained:
[1] = Inhibition of pancreatic lipase (unknown origin) assessed as decrease in release of fatty acid from triolein incubated for 30 mins by phenolphthalein-baed titrimetric method; design: species or system Homo sapiens
[2] = system: pancreatic lipase (Sus scrofa); test: Inhibition of pancreatic lipase (unknown origin) at 100 uM using p-nitrophenylbutyrate as substrate preincubated for 10 mins followed by substrate addition measured after 20 mins
[3] = molecular target: Pancreatic triacylglycerol lipase (Sus scrofa) (UniProt P00591); test: Inhibition of porcine pancreatic lipase using p-nitrophenylbutyrate as substrate preincubated for 10 mins followed by substrate addition measured after 20 mins

IC50 [3] [µM]	SMILES	also measured
–	CC(C)c1cc2c(c(O)c1O)[C@@]1(C(=O)O)CCCC(C)(C)[C@@H]1CC2 [CARNOSIC ACID]	IC50 [1]: 12 µg/mL
–	COc1ccc(-c2cc3c(c(-c4ccc(OC)c(OC)c4OC)c2O)CC[C@@H]2[C@@H]3CC[C@]3(C)C(=O)CC[C@@H]23)c(OC)c1OC	inhibition [2]: 37%
13.6	CCc1ccc(-c2c(O)ccc3c2CC[C@@H]2[C@@H]3CC[C@]3(C)C(=O)CC[C@@H]23)cc1	–
0.82	C[C@]12CC[C@@H]3c4cc(-c5ccc(F)cc5)c(O)c(-c5ccc(F)cc5)c4CC[C@H]3[C@@H]1CCC2=O	–
7.19	C[C@]12CC[C@@H]3c4cc(-c5cccc(F)c5)c(O)c(-c5cccc(F)c5)c4CC[C@H]3[C@@H]1CCC2=O	–
25.6	C[C@]12CC[C@@H]3c4cc(-c5ccccc5)c(O)c(-c5ccccc5)c4CC[C@H]3[C@@H]1CCC2=O	–
–	Oc1cc(O)c2c(c1)O[C@H](c1ccc(O)c(O)c1)[C@H](O)C2 [(-)-EPICATECHIN]	IC50 ([1]; read-out: IC50): > 20 µM
6.42	C[C@]12CC[C@@H]3c4ccc(O)c(-c5ccc(OC(F)(F)F)cc5)c4CC[C@H]3[C@@H]1CCC2=O	–
–	C[C@]12CC[C@@H]3c4ccc5oc6ccccc6c5c4CC[C@H]3[C@@H]1CCC2=O	inhibition [2]: 32%
1.34	C[C@]12CC[C@@H]3c4ccc(O)c(-c5cccc(F)c5)c4CC[C@H]3[C@@H]1CCC2=O	–
–	C[C@H]1[C@H](C)CC[C@]2(C(=O)O)CC[C@]3(C)C(=CC[C@@H]4[C@@]5(C)CC[C@H](O)C(C)(C)[C@@H]5CC[C@]43C)[C@H]12 [URSOLIC ACID]	IC50 ([1]; read-out: IC50): 15.8 µM
16.4	COc1cc(OC)cc(-c2cc3c(cc2O)CC[C@@H]2[C@@H]3CC[C@]3(C)C(=O)CC[C@@H]23)c1	–
–	COc1ccc(-c2c(O)ccc3c2CC[C@@H]2[C@@H]3CC[C@]3(C)C(=O)CC[C@@H]23)c(OC)c1OC	inhibition [2]: 43%
1.78	CC(C)(C)c1ccc(-c2c(O)ccc3c2CC[C@@H]2[C@@H]3CC[C@]3(C)C(=O)CC[C@@H]23)cc1	–
1.75	C[C@]12CC[C@@H]3c4cc(-c5ccc(Cl)cc5)c(O)c(-c5ccc(Cl)cc5)c4CC[C@H]3[C@@H]1CCC2=O	–
0.93	C[C@]12CC[C@@H]3c4cc(-c5ccccc5F)c5oc6ccccc6c5c4CC[C@H]3[C@@H]1CCC2=O	–
0.82	C[C@]12CC[C@@H]3c4ccc(O)c(-c5ccc(C(F)(F)F)cc5)c4CC[C@H]3[C@@H]1CCC2=O	–
16.3	C[C@]12CC[C@@H]3c4cc(-c5ccc(C(F)(F)F)cc5)c(O)cc4CC[C@H]3[C@@H]1CCC2=O	–
8.29	CC(C)(C)c1ccc(-c2cc3c(c(-c4ccc(C(C)(C)C)cc4)c2O)CC[C@@H]2[C@@H]3CC[C@]3(C)C(=O)CC[C@@H]23)cc1	–

IC50 [3] [µM]	SMILES	also measured
1.21	C[C@]12CC[C@@H]3c4cc(-c5ccc(OC(F)(F)F)cc5)c(O)c(-c5ccc(OC(F)(F)F)cc5)c4CC[C@H]3[C@@H]1CCC2=O	–
–	C[C@]12CC[C@@H]3c4cc(-c5ccccc5F)c(O)c(-c5ccccc5F)c4CC[C@H]3[C@@H]1CCC2=O	inhibition [2]: 43%
1.36	C[C@]12CC[C@@H]3c4ccc5oc(=O)c6ccccc6c5c4CC[C@H]3[C@@H]1CCC2=O	–
–	Cc1cc2c(c(O)c1-c1c(C)cc3c(c1O)C(=O)c1c(O)cc(O)cc1C3=O)C(=O)c1c(O)cccc1C2=O [CASSIAMIN A]	IC50 ([1]; read-out: IC50): 41.8 µM
–	CCc1ccc(-c2cc3c(c(-c4ccc(CC)cc4)c2O)CC[C@@H]2[C@@H]3CC[C@]3(C)C(=O)CC[C@@H]23)cc1	inhibition [2]: 41%
2.54	C[C@]12CC[C@@H]3c4cc(-c5ccc(OC(F)(F)F)cc5)c(O)cc4CC[C@H]3[C@@H]1CCC2=O	–
59.7	COc1cc(OC)cc(-c2c(O)ccc3c2CC[C@@H]2[C@@H]3CC[C@]3(C)C(=O)CC[C@@H]23)c1	–
5.28	COc1ccc(-c2cc3c(c(-c4ccc(OC)cc4)c2O)CC[C@@H]2[C@@H]3CC[C@]3(C)C(=O)CC[C@@H]23)cc1	–
16.3	C[C@]12CC[C@@H]3c4cc(-c5cccc(F)c5)c(O)cc4CC[C@H]3[C@@H]1CCC2=O	–
1.21	Cc1ccc(-c2cc3c(cc2O)CC[C@@H]2[C@@H]3CC[C@]3(C)C(=O)CC[C@@H]23)cc1	–
12.3	COc1ccc(-c2cc3c(cc2O)CC[C@@H]2[C@@H]3CC[C@]3(C)C(=O)CC[C@@H]23)cc1	–
–	Cc1ccc(-c2c(O)ccc3c2CC[C@@H]2[C@@H]3CC[C@]3(C)C(=O)CC[C@@H]23)cc1	inhibition [2]: 38%
–	COc1ccc(-c2c(O)ccc3c2CC[C@@H]2[C@@H]3CC[C@]3(C)C(=O)CC[C@@H]23)cc1	inhibition [2]: 42%
–	C[C@]12CC[C@@H]3c4cc(-c5ccc(C(F)(F)F)cc5)c(O)c(-c5ccc(C(F)(F)F)cc5)c4CC[C@H]3[C@@H]1CCC2=O	inhibition [2]: 42%
24.1	Cc1cc(C)cc(-c2cc3c(c(-c4cc(C)cc(C)c4)c2O)CC[C@@H]2[C@@H]3CC[C@]3(C)C(=O)CC[C@@H]23)c1	–
–	C[C@]12CC[C@@H]3c4cc(-c5ccccc5)c(O)cc4CC[C@H]3[C@@H]1CCC2=O	inhibition [2]: 39%
–	Cc1ccc(-c2cc3c(c(-c4ccc(C)cc4)c2O)CC[C@@H]2[C@@H]3CC[C@]3(C)C(=O)CC[C@@H]23)cc1	inhibition [2]: 39%
–	C[C@]12CC[C@@H]3c4ccc(O)c(-c5ccc(Cl)cc5)c4CC[C@H]3[C@@H]1CCC2=O	inhibition [2]: 45%

SMILES	IC50 [3] [µM]	also measured
C[C@]12CC[C@@H]3c4ccc(O)c(-c5ccccc5)c4CC[C@H]3[C@@H]1CCC2=O	1.54	–
CC(C)(C)c1ccc(-c2cc3c(cc2O)CC[C@@H]2[C@@H]3CC[C@]3(C)C(=O)CC[C@@H]23)cc1	5.66	–
